Drawing on PubChem BioAssay AID292 (DTP/NCI, 2004), this text covers T/C for 20 compounds.

The subject of the experiment is B6C3F1 mice, ip Sarcoma M5076, median survival T/C. The experiment in a line: NCI In Vivo Anticancer Drug Screen. Data for tumor model Sarcoma M5076 (intraperitoneal) in B6C3F1 mice. The following applies: endpoint: median survival time, higher = longer survival. In short, it runs like this: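 Survival measured in treated (T) and vehicle control (C) mice with transplantable tumour; result given as T divided by C.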

[1] abbreviates: dose: 50.0 mg/kg/injection, schedule: Q04DX004 (ip), vehicle: Klucel (hydroxypropylcellulose) (HPC).
Setting [2] is: dose: 100.0 mg/kg/injection, schedule: Q04DX004 (ip), vehicle: Klucel (hydroxypropylcellulose) (HPC).
The mark [3] stands for this setting: dose: 200.0 mg/kg/injection, schedule: Q04DX004 (ip), vehicle: Klucel (hydroxypropylcellulose) (HPC).
Setting [4] is: dose: 400.0 mg/kg/injection, schedule: Q04DX004 (ip), vehicle: Klucel (hydroxypropylcellulose) (HPC).
Setting [5] is: dose: 25.0 mg/kg/injection, schedule: Q04DX004 (ip), vehicle: Klucel (hydroxypropylcellulose) (HPC).
The mark [6] stands for this setting: dose: 25.0 mg/kg/injection, schedule: Q04DX004 (ip), vehicle: saline with Tween-80.
The mark [7] stands for this setting: dose: 50.0 mg/kg/injection, schedule: Q04DX004 (ip), vehicle: saline with Tween-80.
Setting [8] is: dose: 100.0 mg/kg/injection, schedule: Q04DX004 (ip), vehicle: saline with Tween-80.
Setting [9] is: dose: 15.0 mg/kg/injection, schedule: Q04DX004 (ip), vehicle: saline with Tween-80.
The mark [10] stands for this setting: dose: 200.0 mg/kg/injection, schedule: Q04DX004 (ip), vehicle: saline with Tween-80.

Where “and” joins values, the source holds several entries; their conditions need not be identical. Equal values may be shown once. Toxic doses and inconclusive results are not listed.

Turning to `CN=C(N)c1ccc(N=C(N)c2ccc(C(N)=Nc3ccc(C(N)=NC)cc3)cc2)cc1`, the T/C reads like this: (dose: 3.75 mg/kg/injection, schedule: Q01DX005 (ip), vehicle: saline) 110 % of control; (dose: 7.5 mg/kg/injection, schedule: Q01DX005 (ip), vehicle: saline) 116 % of control; (dose: 7.5 mg/kg/injection, schedule: Q04DX004 (ip), vehicle: saline) 88 % of control; (dose: 15.0 mg/kg/injection, schedule: Q01DX005 (ip), vehicle: saline) 124 % of control; (dose: 15.0 mg/kg/injection, schedule: Q04DX004 (ip), vehicle: saline) 98 % of control; (dose: 18.0 mg/kg/injection, schedule: Q01DX005 (ip), vehicle: saline) 156 % of control. The T/C (dose: 30.0 mg/kg/injection, schedule: Q04DX004 (ip), vehicle: saline) was 109 % of control.

With `NC(N)=NS(=O)(=O)c1ccc(NCc2c3ccccc3nc3ccccc23)cc1`, the T/C by setting is: under setting [1], 159 % of control; under setting [2], 151 % of control; under setting [3], 178 % of control; under setting [4], 158 % of control and 207 % of control; (dose: 800.0 mg/kg/injection, schedule: Q04DX004 (ip), vehicle: Klucel (hydroxypropylcellulose) (HPC)) 167 % of control and 194 % of control.

Regarding `CCOc1ccc(N2C(=O)C(=O)C(C(C)=O)C2=O)cc1` (configuration not stated), the T/C under setting [1] was 102 % of control, the T/C under setting [2] is 102 % of control, the T/C under setting [3] was 101 % of control and the T/C under setting [4] was 100 % of control.

With `C=Cc1cc(OC)c2c(c1)c(=O)oc1c2cc(OC)c2c(O)ccc(C3OC(C(C)O)C(O)C3O)c21` (configuration not stated), the T/C was 109 % of control under setting [1], 115 % of control under setting [2] and 110 % of control under setting [3].

Take `O=c1c(O)c(O)c1=O.[NH2-].[NH2-].[NH2-].[NH2-].[NH2-].[Ru+5]`: the T/C (dose: 6.25 mg/kg/injection, schedule: Q04DX004 (ip), vehicle: suspension in saline) was 98 % of control; the T/C (dose: 12.5 mg/kg/injection, schedule: Q04DX004 (ip), vehicle: suspension in saline) was 97 % of control; the T/C (dose: 25.0 mg/kg/injection, schedule: Q04DX004 (ip), vehicle: suspension in saline) was 98 % of control.

In the case of `COc1ccc(CCN2C(=O)C(=O)N(C)C2=O)cc1OC`, the T/C under setting [5] is 89 % of control, the T/C under setting [1] is 99 % of control and the T/C under setting [4] is 92 % of control.

In the case of `O=[N+]([O-])O.[Ga]`, the T/C was 111 % of control (dose: 25.0 mg/kg/injection, schedule: Q04DX005 (ip), vehicle: saline); 115 % of control (dose: 50.0 mg/kg/injection, schedule: Q04DX005 (ip), vehicle: saline); 115 % of control (dose: 100.0 mg/kg/injection, schedule: Q04DX005 (ip), vehicle: saline).

`[N-]=[N+]=CC(=O)CCC(NC(=O)OCc1ccccc1)C(=O)OCc1ccccc1` (configuration not stated): the T/C is, setting by setting: under setting [5], 113 % of control; under setting [1], 115 % of control; under setting [2], 121 % of control; under setting [3], 121 % of control.

For `O=C(Nc1ccc2ccccc2c1)C1C(=O)C(=O)N(c2ccc3ccccc3c2)C1=O` (configuration not stated), the T/C by setting is: under setting [1], 100 % of control; under setting [2], 100 % of control; under setting [3], 93 % of control.

Take `CN(C)C(=O)SC1=C(c2c(Cl)cccc2Cl)C(=O)c2ccccc21`: the T/C by setting is: (dose: 37.5 mg/kg/injection, schedule: Q04DX004 (ip), vehicle: Klucel (hydroxypropylcellulose) (HPC)) 97 % of control; (dose: 75.0 mg/kg/injection, schedule: Q04DX004 (ip), vehicle: Klucel (hydroxypropylcellulose) (HPC)) 113 % of control; (dose: 150.0 mg/kg/injection, schedule: Q04DX004 (ip), vehicle: Klucel (hydroxypropylcellulose) (HPC)) 104 % of control; (dose: 300.0 mg/kg/injection, schedule: Q04DX004 (ip), vehicle: Klucel (hydroxypropylcellulose) (HPC)) 95 % of control; (dose: 1200.0 mg/kg/injection, schedule: Q04DX004 (ip), vehicle: Klucel (hydroxypropylcellulose) (HPC)) 95 % of control.

As for `O=C1c2c(O)ccc(O)c2C(=O)c2c(NCCNCCO)ccc(NCCNCCO)c21`, the T/C by setting is: (dose: 0.25 mg/kg/injection, schedule: Q04DX005 (ip), vehicle: saline) 319 % of control; (dose: 0.5 mg/kg/injection, schedule: Q04DX004 (ip), vehicle: water) 161 % of control; (dose: 0.5 mg/kg/injection, schedule: Q04DX005 (ip), vehicle: saline) 319 % of control; (dose: 1.0 mg/kg/injection, schedule: Q04DX004 (ip), vehicle: water) 174 % of control; (dose: 1.0 mg/kg/injection, schedule: Q04DX005 (ip), vehicle: saline) 319 % of control; (dose: 2.0 mg/kg/injection, schedule: Q04DX004 (ip), vehicle: water) 224 % of control. For the same compound, where the note is “dose: 2.0 mg/kg/injection, schedule: Q04DX005 (ip), vehicle: saline”, the T/C is 298 % of control.

In the case of `Cc1ccc2c(c1)n([O-])c1cc(Cl)ccc1[n+]2=O`, the T/C was 104 % of control under setting [6]; 113 % of control under setting [7]; 109 % of control under setting [8]; 120 % of control (dose: 144.0 mg/kg/injection, schedule: Q04DX004 (ip), vehicle: saline with Tween-80).

With `COc1ccccc1-n1cc[n+](C)c1/C=N/O`, the T/C reads like this: (dose: 25.0 mg/kg/injection, schedule: Q04DX004 (ip), vehicle: saline) 101 % of control; (dose: 50.0 mg/kg/injection, schedule: Q04DX004 (ip), vehicle: saline) 101 % of control.

Consider `Cc1nnc2c3nccnc3c(Cl)nn12`, for which the T/C reads like this: under setting [9], 102 % of control; (dose: 30.0 mg/kg/injection, schedule: Q04DX004 (ip), vehicle: saline with Tween-80) 98 % of control; (dose: 60.0 mg/kg/injection, schedule: Q04DX004 (ip), vehicle: saline with Tween-80) 101 % of control; (dose: 120.0 mg/kg/injection, schedule: Q04DX004 (ip), vehicle: saline with Tween-80) 108 % of control.

`CCN(CC)CCN1C(=O)C2C3C=CC(C2C1=O)C1C2C(=O)N(CCN(CC)CC)C(=O)C2C31` (configuration not stated): the T/C (dose: 25.0 mg/kg/injection, schedule: Q04DX004 (ip), vehicle: water) is 95 % of control; the T/C (dose: 50.0 mg/kg/injection, schedule: Q04DX004 (ip), vehicle: water) was 99 % of control; the T/C (dose: 100.0 mg/kg/injection, schedule: Q04DX004 (ip), vehicle: water) is 97 % of control; the T/C (dose: 200.0 mg/kg/injection, schedule: Q04DX004 (ip), vehicle: water) was 99 % of control.

As to `O=S(=O)(O)SCCNCCCCC1CCCCC1`, the T/C (dose: 3.75 mg/kg/injection, schedule: Q04DX004 (ip), vehicle: saline with Tween-80) was 100 % of control; the T/C (dose: 7.5 mg/kg/injection, schedule: Q04DX004 (ip), vehicle: saline with Tween-80) was 99 % of control; the T/C under setting [9] is 101 % of control.

`NC(=O)C1C=CN(Cc2ccccc2)C=C1`: the T/C under setting [7] is 111 % of control, the T/C under setting [8] was 116 % of control and the T/C under setting [10] was 106 % of control.

Regarding `S=C(NCNC(=S)c1ccncc1)c1ccncc1`, the T/C is 96 % of control under setting [6]; 99 % of control under setting [7]; 92 % of control under setting [8]; 102 % of control under setting [10]; 107 % of control (dose: 400.0 mg/kg/injection, schedule: Q04DX004 (ip), vehicle: saline with Tween-80).

With `COc1nc(C(Cl)(Cl)Cl)c(Cl)c(OC)c1Cl`, the T/C is, setting by setting: under setting [1], 99 % of control; under setting [2], 114 % of control; (dose: 179.0 mg/kg/injection, schedule: Q04DX004 (ip), vehicle: Klucel (hydroxypropylcellulose) (HPC)) 152 % of control; (dose: 179.6 mg/kg/injection, schedule: Q04DX004 (ip), vehicle: Klucel (hydroxypropylcellulose) (HPC)) 121 % of control; under setting [4], 168 % of control.

On to `CC[C@@]1(O)C(=O)OCc2c1cc1n(c2=O)Cc2cc3ccccc3nc2-1`, for which the T/C is, setting by setting: (dose: 0.37 mg/kg/injection, schedule: Q04DX004 (ip), vehicle: saline with Tween-80) 107 % of control; (dose: 0.75 mg/kg/injection, schedule: Q04DX004 (ip), vehicle: saline with Tween-80) 109 % of control; (dose: 1.5 mg/kg/injection, schedule: Q04DX004 (ip), vehicle: saline with Tween-80) 118 % of control; (dose: 3.0 mg/kg/injection, schedule: Q04DX004 (ip), vehicle: saline with Tween-80) 150 % of control; (dose: 6.0 mg/kg/injection, schedule: Q04DX004 (ip), vehicle: saline with Tween-80) 153 % of control and 159 % of control.
